Laboratory results taken from patent US12371428B2 (Exelixis, Inc., priority 2019, dated 2025).

Experiments:
[1] = target: Human KDR (residues 790-1356) (Homo sapiens (Human), UniProt P35968); experiment: Human KDR kinase assay, HTRF KinEase (Example B-2); type: biochemical
In short: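 Ten compound concentrations (3% DMSO final) were pre-plated, then KDR (790-1356) with biotinylated peptide in Mg/Mn/DTT buffer was added; ATP at Km (4.0 μM) started a 40 min room-temperature reaction. Detection used Eu-TK antibody and SA-XL665 in EDTA buffer; activity normalized to DMSO and reference inhibitor, IC50 by logistic fit.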

[2] = target: Human MER (residues 528-999) (Homo sapiens (Human), UniProt Q12866); experiment: Human Mer kinase assay, HTRF KinEase (Example C-2); type: biochemical
Human MER (residues 528-999), sequence (Q12866 528-999): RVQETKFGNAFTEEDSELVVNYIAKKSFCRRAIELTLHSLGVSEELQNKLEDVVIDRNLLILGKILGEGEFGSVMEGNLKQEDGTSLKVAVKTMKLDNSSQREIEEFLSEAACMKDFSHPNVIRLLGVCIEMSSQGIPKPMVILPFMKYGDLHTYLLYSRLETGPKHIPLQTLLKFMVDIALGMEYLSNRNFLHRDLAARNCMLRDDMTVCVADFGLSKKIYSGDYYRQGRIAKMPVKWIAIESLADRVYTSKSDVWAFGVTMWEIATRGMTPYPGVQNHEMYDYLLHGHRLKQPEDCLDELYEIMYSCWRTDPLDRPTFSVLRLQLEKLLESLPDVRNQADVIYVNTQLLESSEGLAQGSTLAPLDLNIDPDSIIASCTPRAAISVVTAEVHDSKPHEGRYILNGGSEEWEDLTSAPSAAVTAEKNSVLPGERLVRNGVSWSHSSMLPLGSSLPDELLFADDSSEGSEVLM
In short: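 Recombinant MER 528-999 (1 ng/well) in buffer with 5 mM MgCl2 and 1 mM DTT was reacted with biotinylated peptide and ATP at Km (40 μM) for 60 min at room temperature. EDTA stop with SA-XL665 and Eu3+ TK antibody, then 665/620 nm HTRF read; IC50 from 4-parameter fit.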

[3] = target: Met (phospho-Met, HGF-stimulated PC-3 prostate cancer cells) (Homo sapiens (Human), UniProt P08581); experiment: Met autophosphorylation ELISA in PC-3 cells (Example F); type: cell-based; conditions: cellular activity; Met autophosphorylation ELISA in PC-3 cells; read-out: c-Met IC50
Met (phospho-Met, HGF-stimulated PC-3 prostate cancer cells), sequence (P08581 25-1390): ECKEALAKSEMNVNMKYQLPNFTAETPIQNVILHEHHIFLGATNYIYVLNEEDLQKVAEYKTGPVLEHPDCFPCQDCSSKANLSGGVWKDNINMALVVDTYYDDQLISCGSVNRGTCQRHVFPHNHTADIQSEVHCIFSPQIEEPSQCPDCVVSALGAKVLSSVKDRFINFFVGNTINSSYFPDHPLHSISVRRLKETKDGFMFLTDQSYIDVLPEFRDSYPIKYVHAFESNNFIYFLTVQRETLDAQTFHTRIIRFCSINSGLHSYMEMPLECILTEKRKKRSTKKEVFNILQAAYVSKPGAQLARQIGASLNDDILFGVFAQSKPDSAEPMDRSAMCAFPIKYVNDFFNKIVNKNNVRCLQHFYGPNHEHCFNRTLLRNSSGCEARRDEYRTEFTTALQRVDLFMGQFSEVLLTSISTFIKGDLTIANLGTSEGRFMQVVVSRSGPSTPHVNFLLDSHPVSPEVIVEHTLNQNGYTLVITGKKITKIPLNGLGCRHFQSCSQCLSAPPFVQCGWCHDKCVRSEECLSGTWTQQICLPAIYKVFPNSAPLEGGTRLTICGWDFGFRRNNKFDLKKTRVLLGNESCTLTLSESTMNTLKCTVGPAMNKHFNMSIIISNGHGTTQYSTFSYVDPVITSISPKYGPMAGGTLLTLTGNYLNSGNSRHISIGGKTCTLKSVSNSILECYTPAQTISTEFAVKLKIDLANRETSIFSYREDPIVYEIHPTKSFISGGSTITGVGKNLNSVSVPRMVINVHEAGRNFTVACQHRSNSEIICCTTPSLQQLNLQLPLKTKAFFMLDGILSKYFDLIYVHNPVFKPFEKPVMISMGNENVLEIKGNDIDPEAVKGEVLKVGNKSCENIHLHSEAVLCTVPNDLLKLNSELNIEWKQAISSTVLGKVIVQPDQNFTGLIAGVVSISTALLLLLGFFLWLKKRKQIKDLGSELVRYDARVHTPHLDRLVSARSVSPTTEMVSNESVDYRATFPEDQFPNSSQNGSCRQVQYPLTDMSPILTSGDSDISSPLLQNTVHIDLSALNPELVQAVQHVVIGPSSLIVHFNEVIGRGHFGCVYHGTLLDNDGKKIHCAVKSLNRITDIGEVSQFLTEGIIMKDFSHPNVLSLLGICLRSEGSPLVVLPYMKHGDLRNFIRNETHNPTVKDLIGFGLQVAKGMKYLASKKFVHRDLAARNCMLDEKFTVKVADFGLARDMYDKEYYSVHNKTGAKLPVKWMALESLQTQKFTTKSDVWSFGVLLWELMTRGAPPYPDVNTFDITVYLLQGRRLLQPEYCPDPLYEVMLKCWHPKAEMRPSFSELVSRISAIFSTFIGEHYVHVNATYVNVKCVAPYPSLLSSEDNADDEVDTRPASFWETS
In short: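 PC-3 cells, serum-starved 3 h, were treated with compounds (8-point dose curve, 0.3% DMSO final) for 1 h, then stimulated with 100 ng/mL recombinant human HGF for 10 min. Lysate phospho-Met (panTyr) was quantified by sandwich ELISA; IC50 from 4-parameter logistic fit.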

[4] = protocol of Example B-2 (other compounds)
[5] = protocol of Example C-2 (other compounds)

Human KDR (residues 790-1356), sequence (P35968 790-1356): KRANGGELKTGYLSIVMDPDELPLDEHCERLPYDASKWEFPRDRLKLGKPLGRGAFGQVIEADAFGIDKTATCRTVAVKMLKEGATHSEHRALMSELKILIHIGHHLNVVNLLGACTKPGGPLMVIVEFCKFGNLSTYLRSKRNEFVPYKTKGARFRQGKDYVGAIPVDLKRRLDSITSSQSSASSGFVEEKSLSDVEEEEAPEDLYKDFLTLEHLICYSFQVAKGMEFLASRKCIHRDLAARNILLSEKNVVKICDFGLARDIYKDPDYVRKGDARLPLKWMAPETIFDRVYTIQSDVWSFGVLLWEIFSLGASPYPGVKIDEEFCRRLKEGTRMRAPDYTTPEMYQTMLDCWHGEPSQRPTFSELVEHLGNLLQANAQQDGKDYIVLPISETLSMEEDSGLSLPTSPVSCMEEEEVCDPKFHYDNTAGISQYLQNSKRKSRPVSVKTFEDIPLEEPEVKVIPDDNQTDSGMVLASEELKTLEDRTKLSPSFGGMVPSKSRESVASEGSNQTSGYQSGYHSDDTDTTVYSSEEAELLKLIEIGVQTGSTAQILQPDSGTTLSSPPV

IC50 ([1]; protocol of Example B-2) [nM]	IC50 ([2]; protocol of Example C-2) [nM]	IC50 [3] [nM]	IC50 [1, 4] [nM]	IC50 [2, 5] [nM]	SMILES
> 300	100 to 300	< 100			Cc1cc(F)ccc1-c1c(C)nc(C)c(C(=O)Nc2ccc(Oc3ccnc4cccnc34)c(F)c2)c1O [Compound 505, 5-(4-fluoro-2-methylphenyl)-N-[3-fluoro-4-(1,5-naphthyridin-4-yloxy)phenyl]-4-hydroxy-2,6-dimethylpyridine-3-carboxamide]
> 300	< 100	< 100			COCc1nc(C)c(-c2ccc(F)cc2C)c(O)c1C(=O)Nc1ccc(Oc2ccnc3ccc(OC)nc23)cc1 [Compound 516, 5-(4-fluoro-2-methylphenyl)-4-hydroxy-2-(methoxymethyl)-N-[4-[(6-methoxy-1,5-naphthyridin-4-yl)oxy]phenyl]-6-methylpyridine-3-carboxamide]
> 300	< 100	< 100			CCc1nc(C)c(-c2ccc(F)cc2C)c(O)c1C(=O)Nc1ccc(Oc2ccnc3ccc(OC)nc23)cc1 [Compound 526, 2-ethyl-5-(4-fluoro-2-methylphenyl)-4-hydroxy-N-[4-[(6-methoxy-1,5-naphthyridin-4-yl)oxy]phenyl]-6-methylpyridine-3-carboxamide]
> 300	< 100	< 100			CCn1cc(C(=O)Nc2ccc(Oc3ccnc4cc(OC)c(OC)nc34)c(F)c2)c(=O)c(-c2ccc(F)cc2)c1CF [Compound 562, N-[4-[(6,7-Dimethoxy-1,5-naphthyridin-4-yl)oxy]-3-fluorophenyl]-1-ethyl-6-(fluoromethyl)-5-(4-fluorophenyl)-4-oxopyridine-3-carboxamide]
> 300	100 to 300	< 100			COc1cnc2c(Oc3ccc(NC(=O)c4cc(C)nn(-c5ccc(F)cc5)c4=O)cc3)ccnc2c1 [Compound 522, 2-(4-fluorophenyl)-N-[4-[(7-methoxy-1,5-naphthyridin-4-yl)oxy]phenyl]-6-methyl-3-oxopyridazine-4-carboxamide]
> 300	< 100	< 100			COc1cc2nccc(Oc3ccc(NC(=O)c4cc(C)nn(-c5ccc(F)cc5)c4=O)cc3)c2nc1OC [Compound 520, N-[4-[(6,7-dimethoxy-1,5-naphthyridin-4-yl)oxy]phenyl]-2-(4-fluorophenyl)-6-methyl-3-oxopyridazine-4-carboxamide]
< 100	< 100	< 100			CCc1nc(C)c(-c2ccc(F)cc2)c(O)c1C(=O)Nc1ccc(Oc2ccnc3ccc(OC)nc23)cc1 [Compound 509, 2-ethyl-5-(4-fluorophenyl)-4-hydroxy-N-[4-[(6-methoxy-1,5-naphthyridin-4-yl)oxy]phenyl]-6-methylpyridine-3-carboxamide]
< 100	< 100	< 100			Cc1nc(C)c(-c2ccc(F)cc2)c(O)c1C(=O)Nc1ccc(Oc2ccnc3cc(O)cnc23)c(F)c1 [Compound 554, N-[3-Fluoro-4-[(7-hydroxy-1,5-naphthyridin-4-yl)oxy]phenyl]-5-(4-fluorophenyl)-4-hydroxy-2,6-dimethylpyridine-3-carboxamide]
		< 100	> 300	< 100	COc1cnc2c(Oc3ccc(NC(=O)c4cn(C)c(C)c(-c5ccc(F)cc5C)c4=O)cc3)ccnc2c1 [Compound 187, 5-(4-Fluoro-2-methylphenyl)-N-[4-[(7-methoxy-1,5-naphthyridin-4-yl)oxy]phenyl]-1,6-dimethyl-4-oxopyridine-3-carboxamide]
		< 100	100 to 300	< 100	COCCOc1ccc2nccc(Oc3ccc(NC(=O)c4cnc(C)c(-c5ccc(F)cc5)c4O)cc3F)c2n1 [Compound 348, N-[3-fluoro-4-[[6-(2-methoxyethoxy)-1,5-naphthyridin-4-yl]oxy]phenyl]-5-(4-fluorophenyl)-4-hydroxy-6-methylpyridine-3-carboxamide]
		< 100	> 300	< 100	COc1cc2ncnc(Oc3ccc(NC(=O)c4c5n(cc(-c6ccc(F)cc6)c4=O)CCC5)cc3F)c2cc1OC [Compound 406, N-[4-(6,7-dimethoxyquinazolin-4-yl)oxy-3-fluorophenyl]-6-(4-fluorophenyl)-7-oxo-2,3-dihydro-1H-indolizine-8-carboxamide]
< 100	< 100	< 100			C=C(C)c1cnc2c(Oc3ccc(NC(=O)c4c(C)nc(C)c(-c5ccc(F)cc5)c4O)cc3F)ccnc2c1 [Compound 451, 5-(4-fluorophenyl)-N-[3-fluoro-4-[(7-prop-1-en-2-yl-1,5-naphthyridin-4-yl)oxy]phenyl]-4-hydroxy-2,6-dimethylpyridine-3-carboxamide]
> 300	< 100	< 100			COc1cc2nccc(Oc3ccc(NC(=O)c4cn(C)c(CF)c(-c5ccc(F)cc5C)c4=O)cc3F)c2nc1OC [Compound 556, N-[4-[(6,7-Dimethoxy-1,5-naphthyridin-4-yl)oxy]-3-fluorophenyl]-6-(fluoromethyl)-5-(4-fluoro-2-methylphenyl)-1-methyl-4-oxopyridine-3-carboxamide]
100 to 300	< 100	< 100			Cc1ccc(C(=O)Nc2ccc(Oc3ccnc4cc(O)cnc34)c(F)c2)c(=O)n1-c1ccc(F)cc1 [Compound 551, N-[3-Fluoro-4-[(7-hydroxy-1,5-naphthyridin-4-yl)oxy]phenyl]-1-(4-fluorophenyl)-6-methyl-2-oxopyridine-3-carboxamide]
< 100	< 100	< 100			CCc1ncc(C(=O)Nc2ccc(Oc3ccnc4cc(OC)c(OC)nc34)c(F)c2)c(O)c1-c1ccc(F)cc1 [Compound 504, N-[4-[(6,7-dimethoxy-1,5-naphthyridin-4-yl)oxy]-3-fluorophenyl]-6-ethyl-5-(4-fluorophenyl)-4-hydroxypyridine-3-carboxamide]
100 to 300	100 to 300	< 100			COc1ccc2nccc(Oc3ccc(NC(=O)c4c(C)ncc(-c5ccc(F)cc5C)c4O)cc3F)c2n1 [Compound 480, N-[3-fluoro-4-[(6-methoxy-1,5-naphthyridin-4-yl)oxy]phenyl]-5-(4-fluoro-2-methylphenyl)-4-hydroxy-2-methylpyridine-3-carboxamide]
100 to 300	< 100	< 100			COCCOc1nc2c(Oc3ccc(NC(=O)c4cn(C)c(CF)c(-c5ccc(F)cc5)c4=O)cc3F)ccnc2cc1OC [Compound 557, N-[3-Fluoro-4-[[7-methoxy-6-(2-methoxyethoxy)-1,5-naphthyridin-4-yl]oxy]phenyl]-6-(fluoromethyl)-5-(4-fluorophenyl)-1-methyl-4-oxopyridine-3-carboxamide]
		< 100	< 100	< 100	COc1cc2nccc(Oc3ccc(NC(=O)c4c(C)nc(C)c(-c5ccc(F)cc5)c4O)cc3F)c2nc1OC [Compound 154, N-[4-[(6,7-Dimethoxy-1,5-naphthyridin-4-yl)oxy]-3-fluorophenyl]-5-(4-fluorophenyl)-4-hydroxy-2,6-dimethylpyridine-3-carboxamide]
100 to 300	< 100	< 100			COc1cc2c(Oc3ccc(NC(=O)c4ccc(C)n(-c5ccc(F)cc5)c4=O)cc3F)ccnc2cn1 [Compound 494, N-[3-fluoro-4-[(6-methoxy-1,7-naphthyridin-4-yl)oxy]phenyl]-1-(4-fluorophenyl)-6-methyl-2-oxopyridine-3-carboxamide]
< 100	< 100	< 100			COc1cc2nccc(Oc3ccc(NC(=O)c4nn(C)c(C)c(-c5ccc(F)cc5C)c4=O)cc3F)c2nc1OC [Compound 512, N-[4-[(6,7-dimethoxy-1,5-naphthyridin-4-yl)oxy]-3-fluorophenyl]-5-(4-fluoro-2-methylphenyl)-1,6-dimethyl-4-oxopyridazine-3-carboxamide]
		100 to 300	> 300	< 100	COc1cc2nccc(Oc3ccc(NC(=O)c4cn(CC(F)(F)F)c(C)c(-c5ccc(F)cc5)c4=O)cc3)c2cc1OC [Compound 260, N-[4-(6,7-Dimethoxyquinolin-4-yl)oxyphenyl]-5-(4-fluorophenyl)-6-methyl-4-oxo-1-(2,2,2-trifluoroethyl)pyridine-3-carboxamide]
> 300	< 100	< 100			COc1cnc2c(Oc3ccc(NC(=O)c4c(C)n(C)c(C)c(-c5ccc(F)cc5)c4=O)cc3F)ccnc2c1 [Compound 508, N-[3-fluoro-4-[(7-methoxy-1,5-naphthyridin-4-yl)oxy]phenyl]-5-(4-fluorophenyl)-1,2,6-trimethyl-4-oxopyridine-3-carboxamide]
100 to 300	< 100	< 100			COc1cc2nccc(Oc3ccc(NC(=O)c4c(C)c(C)nn(-c5ccc(F)cc5)c4=O)cc3F)c2nc1OC [Compound 524, N-[4-[(6,7-dimethoxy-1,5-naphthyridin-4-yl)oxy]-3-fluorophenyl]-2-(4-fluorophenyl)-5,6-dimethyl-3-oxopyridazine-4-carboxamide]
